According to US20260258031A1, “CRYSTALLINE FORMS OF AN ESTROGEN RECEPTOR ANTAGONIST” (Olema Pharmaceuticals, Inc., priority 2022, published 2026):
Where “and” joins values, the source holds several entries; their conditions need not be identical. Identical values can stand only once. Values belong to the compound of their own block, whether it stands above or below them.

Tests used:
[1] = co-former acid of salt screen; cited from earlier work
[2] = Solubility in solvents, dynamic method; assay type: physicochemical; conditions: for solubility at 15 min: organic solvent or mixture, thermodynamic from solid, dynamic method
Method: […] Solubility was measured by the dynamic method and gravimetric method.
Dynamic method: Under the condition of a certain amount of solute and certain temperature, solvent was gradually added with stirring for 15 min to reach equilibrium. When solute is completely dissolved, amount of solvent was recorded and the solubility calculated.

[3] = Bulk density (untapped, graduated cylinder); assay type: physicochemical
Method: Bulk density of Compound 1 Fumarate Form E was measured by gently introducing a known sample mass into a graduated cylinder (50 mL), leveling the powder without compacting it, and recording the apparent untapped volume to the nearest graduated unit.

[4] = Stability in oven at 60° C. for two weeks (HPLC purity, XRPD); assay type: physicochemical; conditions: for HPLC Purity (%) 60° C.: after two weeks at 60° C.; for HPLC Purity (%) Starting: before storage; for Stability relative to Amorphous Compound 1 / XRPD change after storage: two weeks at 60° C.; for HPLC Purity (%) Degradation: two weeks at 60° C. versus starting
Method: Amorphous Compound 1, Compound 1 Fumarate Form E, and Compound 1 Fumarate Form A Anhydrate were placed in an oven at 60° C. for two weeks to evaluate their stability.

[5] = Solubility, gravimetric method; assay type: physicochemical; conditions: H2O, 25° C.; for solubility: gravimetric method
Method: Solubility studies of Compound 1 and Compound 1 Fumarate in different solvents at 25° C. were performed. Solubility was measured by the dynamic method and gravimetric method.
Gravimetric method: Excess solids and a certain amount of solvent were added 8 mL vials, stirred for 24 hours, and filtered.

[6] = Dynamic vapor sorption (DVS), hygroscopicity; assay type: physicochemical; conditions: for Hygroscopicity (%), water uptake: 25° C./80% RH
Method: DVS was performed using Intrinsic DVS ([…], UK). About 30-50 mg of sample was placed in a sample basked and hung in the measuring chamber. For an isotherm test, the chamber temperature was maintained by a water bath at a constant 25±1° C. The sample was tested at a targeted RH from 0 to 90% full cycle in step mode. The analysis was performed in 10% RH increments. Time duration at each RH was set as 60 min so that the sample could reach equilibrium with the chamber environment. Data were collected in 20 s increments.

[7] = Competitive slurry experiments Form E / Form A Anhydrate (XRPD); assay type: physicochemical; conditions: 25° C. or 40° C.
Method: Competitive slurry experiments were performed with Compound 1 Fumarate Form E and Compound 1 Fumarate Form A Anhydrate, as follows:
Experiment #1: Compound 1 Fumarate Form E (100 mg), Compound 1 Fumarate Form A Anhydrate (100 mg), and isopropanol (2 mL) were added into two 8-mL vials and mixed well in a shaker at 25° C. and 40° C., respectively. Samples for analysis were taken at 24 h and 72 h.
Experiment #2: Compound 1 Fumarate Form E (100 mg), Compound 1 Fumarate Form A Anhydrate (100 mg), and water (2 mL) were added into two 8-mL vials and mixed well in a shaker at 25° C. and 40° C., respectively. Samples for analysis were taken at 24 h and 72 h.
Experiment #3: Compound 1 Fumarate Form E (100 mg), Compound 1 Fumarate Form A Anhydrate (100 mg), and ethyl acetate (2 mL) were added into two 8-mL vials and mixed well in a shaker at 25° C. and 40° C., respectively. Samples for analysis were taken at 24 h and 72 h.

[8] = Kinetic solubility of Fumarate Form A Ethyl Acetate Solvate, solvent aliquot addition; assay type: physicochemical; conditions: thermodynamic from solid, ambient temperature
Method: The screen consisted primarily of long term slurry experiments. To help design screen experiments, kinetic solubilities of Fumarate Form A Ethyl Acetate Solvate were estimated. The estimation was done on a 3-11 mg scale using a solvent aliquot addition method, and dissolution was judged by visual observation. Solubilities are estimated at ambient temperature and reported to the nearest mg/mL; if complete dissolution was achieved by one aliquot addition, solubilities were reported as “>”;

Solubility in isopropanol (in words) ([2]; 25° C.): relatively low solubility
SMILES: O=C(O)/C=C/C(=O)O [Fumaric acid]

Bulk Density, Average ([3]; average of three runs): 0.1239 g/mL
Solubility in isopropanol (in words) ([2]; 25° C.): very low solubility
Change of solubility with increasing proportion of heptane ([2]; isopropanol/heptane, 25° C.): decreased significantly
solubility at 15 min ([2]; IPA, 0° C.): < 1 mg/mL
solubility at 15 min ([2]; IPA, 25° C.): ~8.46 mg/mL
solubility at 15 min ([2]; IPA/heptane (1/1), 25° C.): ~2.35 mg/mL
solubility at 15 min ([2]; IPA/heptane (1/3), 25° C.): < 1 mg/mL
solubility at 15 min ([2]; IPA/heptane (5/1), 25° C.): 5.89 mg/mL
solubility at 15 min ([2]; IPA/heptane (5/3), 25° C.): ~3.57 mg/mL
HPLC Purity (%) 60° C. [4]: 99.50%
HPLC Purity (%) Starting [4]: 99.54%
Stability relative to Amorphous Compound 1 [4]: improved stability
XRPD change after storage [4]: No change
HPLC Purity (%) Degradation [4]: −0.05%
Solubility compared with Compound 1 Fumarate Form A Anhydrate [5]: much lower solubility
solubility [5]: 1.0 mg/mL
Hygroscopicity by DVS (in words) ([6]; 25° C., 0 to 90% RH cycle): not hygroscopic
Outcome of competitive slurry (XRPD) ([7]; isopropanol, after 24 h): more stable than Form A Anhydrate
SMILES: CCCN1CC(Oc2ccc([C@@H]3c4[nH]c5ccccc5c4C[C@@H](C)N3CC(C)(C)F)cc2)C1.O=C(O)/C=C/C(=O)O [Compound 1 Fumarate Form E]
Bulk Density ([3]; single runs 1-3, untapped): 0.1288 g/mL and 0.1233 g/mL and 0.1196 g/mL
Outcome of competitive slurry (XRPD) ([7]; ethyl acetate, after 72 h): a mixture of Compound 1 Fumarate Form E and Compound 1 Fumarate Form A Anhydrate remained
Outcome of competitive slurry (XRPD) ([7]; water, after 72 h): a mixture of Compound 1 Fumarate Form E and Compound 1 Fumarate Form A Anhydrate remained

HPLC Purity (%) 60° C. [4]: 99.54%
HPLC Purity (%) Starting [4]: 99.58%
Stability relative to Amorphous Compound 1 [4]: improved stability
XRPD change after storage [4]: No change
HPLC Purity (%) Degradation [4]: −0.04%
solubility [5]: 6.5 mg/mL
Hygroscopicity (%), water uptake [6]: hygroscopic (0.108) %
Form Change after DVS? [6]: No
SMILES: CCCN1CC(Oc2ccc([C@@H]3c4[nH]c5ccccc5c4C[C@@H](C)N3CC(C)(C)F)cc2)C1.O=C(O)/C=C/C(=O)O [Compound 1 Fumarate Form A Anhydrate]
Outcome of competitive slurry (XRPD) ([7]; ethyl acetate, after 72 h): a mixture of Compound 1 Fumarate Form E and Compound 1 Fumarate Form A Anhydrate remained
Outcome of competitive slurry (XRPD) ([7]; isopropanol, after 24 h): completely transformed into Compound 1 Fumarate Form E
Outcome of competitive slurry (XRPD) ([7]; water, after 72 h): a mixture of Compound 1 Fumarate Form E and Compound 1 Fumarate Form A Anhydrate remained

solubility ([8]; aqueous with cosolvent or surfactant or cyclodextrin, IPA/water (50/50)): > 124 mg/mL
solubility ([8]; organic solvent or mixture, 2-BuOH): 17 mg/mL
solubility ([8]; organic solvent or mixture, 2-MeTHF): 32 mg/mL
solubility ([8]; organic solvent or mixture, ACN, re-precipitated after first aliquot): < 2 mg/mL
solubility ([8]; organic solvent or mixture, Anisole): < 1 mg/mL
solubility ([8]; organic solvent or mixture, DCE): < 9 mg/mL
solubility ([8]; organic solvent or mixture, DCE/EtOH (96/4)): ≥ 8 mg/mL
solubility ([8]; organic solvent or mixture, Dioxane): > 104 mg/mL
solubility ([8]; organic solvent or mixture, IPA): 20 mg/mL
solubility ([8]; organic solvent or mixture, MIBK): 4 mg/mL
solubility ([8]; organic solvent or mixture, MTBE): 2 mg/mL
solubility ([8]; organic solvent or mixture, TFE): > 100 mg/mL
solubility ([8]; organic solvent or mixture, t-BuOAc, re-precipitated after first aliquot): 1 mg/mL
SMILES: CCCN1CC(Oc2ccc([C@@H]3c4[nH]c5ccccc5c4C[C@@H](C)N3CC(C)(C)F)cc2)C1.O=C(O)/C=C/C(=O)O

Further lines, the compound ahead of its results:

SMILES: O=C1CC[C@@H](C(=O)O)N1 [(−)-L-Pyroglutamic acid]
pKa [1]: 3.32

SMILES: O=C(O)c1cc2ccccc2c(Cc2c(O)c(C(=O)O)cc3ccccc23)c1O [Pamoic Acid]
pKa [1]: 2.51

SMILES: CCCN1CC(Oc2ccc([C@@H]3c4[nH]c5ccccc5c4C[C@@H](C)N3CC(C)(C)F)cc2)C1 [Amorphous Compound 1, (1R,3R)-2-(2-fluoro-2-methylpropyl)-3-methyl-1-(4-((1-propylazetidin-3-yl)oxy)phenyl)-2,3,4,9-tetrahydro-1H-pyrido[3,4-b]indole]
Solubility in isopropanol (in words) ([2]; 25° C.): high solubility
HPLC Purity (%) 60° C. [4]: 98.94%
HPLC Purity (%) Starting [4]: 99.23%
XRPD change after storage [4]: No change
HPLC Purity (%) Degradation [4]: −0.29%
Hygroscopicity (%), water uptake [6]: hygroscopic (0.463) %
Form Change after DVS? [6]: No

SMILES: O=C(O)CO [Glycolic Acid]
pKa [1]: 3.28
